Here are results for one compound from patent US20220332839A1, “USE OF PRG4 TO TREAT CANCER” (Lubris LLC, priority 2019, published 2022).

Experiment [1] deals with HCC cells (HLE, HLF, PLC/DC/19, Hep3B, PLC/PRF/5). The experiment can be described thus: 72-hour proliferation assay, all HCC cells. The experiment is classed as cell-based, human. The conditions noted are these: Homo sapiens, same experimental conditions. On the procedure: (§1) Proliferation assay: In 100 μl complete medium, 3,000 cells were seeded in wells of a 96-well plate and left overnight to allow complete attachment. The next day (at time t=0 hours), the medium was removed and replaced with 100 μl of fresh medium in the presence/absence of Sorafenib (2.5 μM), Regorafenib (2.5 μM), rhPRG4 (12.5 to 100 μg/ml). Dimethyl sulfoxide (DMSO) and PBS+0.01% Tween-20 were used as vehicles of Sorafenib/Regorafenib, and rhPRG4, respectively. Cells in triplicate wells for each cell line were fixed at t=0 hours with 4% paraformaldehyde (PFA, pH 7.6, 10 min incubation), then stained with crystal violet (CV) and thoroughly washed to remove the excess staining. After 72 hours, the cells were fixed by adding 100 μl of 4% PFA directly to the medium (2% final PFA concentration, 20 min incubation), and processed for CV staining as previously described. Then, 100 or 200 μl of 1% sodium dodecyl-sulphate were added to the wells and the plates were left under shaking until complete CV release from stained cells. Optical density was at 595 nm wavelength measured using a plate reader.

A further experiment concerns CD44-shRNA HCC cells. The experiment can be described thus: 72-hour proliferation assay, CD44-silenced HCC cells. The format is cell-based, human. The conditions noted are these: 2.5 μM drug; rhPRG4 0 to 100 μg/ml; p<0.05 to p<0.001.
From the text: Stable CD44 silencing: HLE and HLF cell lines were transduced with lentiviral particles carrying control non-targeting (V), or specific CD44-targeting shRNA sequences (A to D), and selected with puromycin dihydrochloride (Thermo Fisher Scientific) to obtain stable CD44 silencing, according to manufacturer instructions (OriGene Technologies, Inc., Rockville, Md. 20850, USA). Control-shRNA sequence (V) and CD44-shRNA sequence B were used in all the experiments involving CD44 downregulation.
as §1, with “After 72 hours, the cells were fixed by adding 100 μl of 4% PFA directly to the medium (2% final PFA concentration, 20 min incubation), and processed for CV staining as previously described. Then, 100 or 200 μl of 1% sodium dodecyl-sulphate were added to the wells and the plates were left under shaking until complete CV release from stained cells.” left out

Regarding `CNC(=O)c1cc(Oc2ccc(NC(=O)Nc3ccc(Cl)c(C(F)(F)F)c3)cc2)ccn1` [Sorafenib], the IC50 (as a rule, the midpoint of a concentration-inhibition curve) in experiment [1] was approximately 5 µM. The “capacity in inhibiting cells proliferation in CD44 silenced cells compared to control cells” value in the experiment with CD44-shRNA HCC cells was “significantly reduced”.
